Columns and labels:
Italian ryegrass [1] = assay: Test Example 5: herbicidal effect by foliage application, plastic box (Table 20, symbol K); format: in vivo, Italian ryegrass (Lolium multiflorum); conditions: foliage application, 320 g/ha, evaluated three weeks after application
Method in brief: (§1)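 Plants sown in sterilized diluvial soil and grown 14 days in a greenhouse at 25° C to 30° C, then sprayed on the foliage with the compound's emulsion diluted in water to a predetermined herbicide amount. Injury to weeds and crops scored three weeks after application on a visual rating scale.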

barnyard grass [2] = assay: Test Example 3: herbicidal effect by foliage application, Wagner pot (Table 18, symbol H); format: in vivo, barnyard grass (Echinochloa crus-galli); conditions: amount of applied herbicide 320 g/ha
Method in brief: (§2)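 Plants were sown in alluvial soil held under 0.1–0.5 cm standing water and grown 14 days in a greenhouse at 25–30 °C. An emulsifiable formulation, water-diluted to the set dose, was then sprayed onto the foliage, and effects were scored three weeks later using previously defined criteria.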

Italian ryegrass [3] = assay: Test Example 4: herbicidal effect by soil treatment (Table 19, symbol K); format: in vivo, Italian ryegrass (Lolium multiflorum); conditions: amount of applied herbicide 320 g/ha
Method in brief: (§3)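 Seeds were sown in sterilized diluvial soil and covered with about 1.5 cm of soil. An emulsion formulation diluted with water to a predetermined herbicide amount was sprayed evenly onto the soil surface. Plants grew in a greenhouse at 25° C. to 30° C., and the effect was scored three weeks after application using criteria from an earlier test.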

green foxtail [4] = assay: Test Example 4: herbicidal effect by soil treatment (Table 19, symbol G); format: in vivo, green foxtail (Setaria viridis); conditions: amount of applied herbicide 320 g/ha
Method in brief: as §3

barnyard grass [5] = assay: Test Example 4: herbicidal effect by soil treatment (Table 19, symbol H); format: in vivo, barnyard grass (Echinochloa crus-galli); conditions: amount of applied herbicide 320 g/ha
Method in brief: as §3

green foxtail [6] = assay: Test Example 5: herbicidal effect by foliage application, plastic box (Table 20, symbol G); format: in vivo, green foxtail (Setaria viridis); conditions: foliage application, 320 g/ha, evaluated three weeks after application
Method in brief: as §1

Japanese bulrush = assay: Test Example 1: herbicidal activity, application before weed generation under submerged conditions (Table 16, symbol B); format: in vivo, Japanese bulrush (Schoenoplectus juncoides); conditions: 320 g/ha applied herbicide
Method in brief: (§4)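 Submerged Wagner pots (alluvial soil, 4 cm water) sown with weed seeds and planted with 2.5-leaf rice seedlings; emulsifiable concentrate diluted in water applied to water surface on sowing day. Held in greenhouse at 25-30 °C; injury scored 0-5 by herbicidal rate after three weeks.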

oval-leafed pondweed = assay: Test Example 1: herbicidal activity, application before weed generation under submerged conditions (Table 16, symbol C); format: in vivo, oval-leafed pondweed (Monochoria vaginalis); conditions: 320 g/ha applied herbicide
Method in brief: as §4

southern crabgrass [7] = assay: Test Example 5: herbicidal effect by foliage application, plastic box (Table 20, symbol F); format: in vivo, southern crabgrass (Digitaria ciliaris); conditions: foliage application, 320 g/ha, evaluated three weeks after application
Method in brief: as §1

redroot pigweed [8] = assay: Test Example 4: herbicidal effect by soil treatment (Table 19, symbol N); format: in vivo, redroot pigweed (Amaranthus retroflexus); conditions: amount of applied herbicide 320 g/ha
Method in brief: as §3

false cleavers = assay: Test Example 4: herbicidal effect by soil treatment (Table 19, symbol Q); format: in vivo, false cleavers (Galium spurium); conditions: amount of applied herbicide 320 g/ha
Method in brief: as §3

velvetleaf [9] = assay: Test Example 5: herbicidal effect by foliage application, plastic box (Table 20, symbol M); format: in vivo, velvetleaf (Abutilon theophrasti); conditions: foliage application, 320 g/ha, evaluated three weeks after application
Method in brief: as §1

windgrass [10] = assay: Test Example 5: herbicidal effect by foliage application, plastic box (Table 20, symbol L); format: in vivo, windgrass (Apera spica-venti); conditions: foliage application, 320 g/ha, evaluated three weeks after application
Method in brief: as §1

blackgrass [11] = assay: Test Example 5: herbicidal effect by foliage application, plastic box (Table 20, symbol J); format: in vivo, blackgrass (Alopecurus myosuroides); conditions: foliage application, 320 g/ha, evaluated three weeks after application
Method in brief: as §1

chickweed [12] = assay: Test Example 5: herbicidal effect by foliage application, plastic box (Table 20, symbol P); format: in vivo, common chickweed (Stellaria media); conditions: foliage application, 320 g/ha, evaluated three weeks after application
Method in brief: as §1

velvetleaf [13] = assay: Test Example 4: herbicidal effect by soil treatment (Table 19, symbol M); format: in vivo, velvetleaf (Abutilon theophrasti); conditions: amount of applied herbicide 320 g/ha
Method in brief: as §3

southern crabgrass [14] = assay: Test Example 4: herbicidal effect by soil treatment (Table 19, symbol F); format: in vivo, southern crabgrass (Digitaria ciliaris); conditions: amount of applied herbicide 320 g/ha
Method in brief: as §3

redroot pigweed [15] = assay: Test Example 5: herbicidal effect by foliage application, plastic box (Table 20, symbol N); format: in vivo, redroot pigweed (Amaranthus retroflexus); conditions: foliage application, 320 g/ha, evaluated three weeks after application
Method in brief: as §1

wild oat [16] = assay: Test Example 5: herbicidal effect by foliage application, plastic box (Table 20, symbol I); format: in vivo, wild oat (Avena fatua); conditions: foliage application, 320 g/ha, evaluated three weeks after application
Method in brief: as §1

wild oat [17] = assay: Test Example 4: herbicidal effect by soil treatment (Table 19, symbol I); format: in vivo, wild oat (Avena fatua); conditions: amount of applied herbicide 320 g/ha
Method in brief: as §3

Chinese sprangletop = assay: Test Example 3: herbicidal effect by foliage application, Wagner pot (Table 18, symbol D); format: in vivo, chinese sprangletop (Leptochloa chinensis); conditions: amount of applied herbicide 320 g/ha
Method in brief: as §2

lambsquarters [18] = assay: Test Example 4: herbicidal effect by soil treatment (Table 19, symbol O); format: in vivo, lambsquarters (Chenopodium album); conditions: amount of applied herbicide 320 g/ha
Method in brief: as §3

barnyard grass [19] = assay: Test Example 5: herbicidal effect by foliage application, plastic box (Table 20, symbol H); format: in vivo, barnyard grass (Echinochloa crus-galli); conditions: foliage application, 320 g/ha, evaluated three weeks after application
Method in brief: as §1

blackgrass [20] = assay: Test Example 4: herbicidal effect by soil treatment (Table 19, symbol J); format: in vivo, blackgrass (Alopecurus myosuroides); conditions: amount of applied herbicide 320 g/ha
Method in brief: as §3

persian speedwell [21] = assay: Test Example 4: herbicidal effect by soil treatment (Table 19, symbol R); format: in vivo, Persian speedwell (Veronica persica); conditions: amount of applied herbicide 320 g/ha
Method in brief: as §3

windgrass [22] = assay: Test Example 4: herbicidal effect by soil treatment (Table 19, symbol L); format: in vivo, windgrass (Apera spica-venti); conditions: amount of applied herbicide 320 g/ha
Method in brief: as §3

lambsquarters [23] = assay: Test Example 5: herbicidal effect by foliage application, plastic box (Table 20, symbol O); format: in vivo, lambsquarters (Chenopodium album); conditions: foliage application, 320 g/ha, evaluated three weeks after application
Method in brief: as §1

persian speedwell [24] = assay: Test Example 5: herbicidal effect by foliage application, plastic box (Table 20, symbol R); format: in vivo, Persian speedwell (Veronica persica); conditions: foliage application, 320 g/ha, evaluated three weeks after application
Method in brief: as §1

chickweed [25] = assay: Test Example 4: herbicidal effect by soil treatment (Table 19, symbol P); format: in vivo, common chickweed (Stellaria media); conditions: amount of applied herbicide 320 g/ha
Method in brief: as §3

late watergrass = assay: Test Example 1: herbicidal activity, application before weed generation under submerged conditions (Table 16, symbol A); format: in vivo, late watergrass (Echinochloa oryzicola); conditions: 320 g/ha applied herbicide
Method in brief: as §4

COc1cc(F)ccc1-c1sc2ccc(NC(C)=O)cc2c1-c1c(O)c(C)nn(C)c1=O [2-175]
herbicidal effect on K: Italian ryegrass (criteria 0-5) (Italian ryegrass [1]): 0 (Herbicidal rate of 5% or less (almost no effect)) | herbicidal effect on H: barnyard grass (barnyard grass [2]): 4 (Herbicidal rate of 70% or more and less than 90%) | K: Italian ryegrass, herbicidal effect rating (Italian ryegrass [3]): 0 (Herbicidal rate of 5% or less (almost no effect)) | G: green foxtail, herbicidal effect rating (green foxtail [4]): 0 (Herbicidal rate of 5% or less (almost no effect)) | H: barnyard grass, herbicidal effect rating (barnyard grass [5]): 0 (Herbicidal rate of 5% or less (almost no effect)) | herbicidal effect on G: green foxtail (criteria 0-5) (green foxtail [6]): 4 (Herbicidal rate of 70% or more and less than 90%) | Herbicidal effect on B: Japanese bulrush (grade 0-5) (Japanese bulrush): 0 (Herbicidal rate of 5% or less (almost no effect)) | Herbicidal effect on C: oval-leafed pondweed (grade 0-5) (oval-leafed pondweed): 0 (Herbicidal rate of 5% or less (almost no effect)) | herbicidal effect on F: southern crabgrass (criteria 0-5) (southern crabgrass [7]): 3 (Herbicidal rate of 40% or more and less than 70%) | N: redroot pigweed, herbicidal effect rating (redroot pigweed [8]): 4 (Herbicidal rate of 70% or more and less than 90%) | Q: false cleavers, herbicidal effect rating (false cleavers): 0 (Herbicidal rate of 5% or less (almost no effect)) | herbicidal effect on M: velvetleaf (criteria 0-5) (velvetleaf [9]): 3 (Herbicidal rate of 40% or more and less than 70%) | herbicidal effect on L: windgrass (criteria 0-5) (windgrass [10]): 5 (Herbicidal rate of 90% or more (almost completely withered)) | herbicidal effect on J: blackgrass (criteria 0-5) (blackgrass [11]): 5 (Herbicidal rate of 90% or more (almost completely withered)) | herbicidal effect on P: chickweed (criteria 0-5) (chickweed [12]): 5 (Herbicidal rate of 90% or more (almost completely withered)) | M: velvetleaf, herbicidal effect rating (velvetleaf [13]): 0 (Herbicidal rate of 5% or less (almost no effect)) | F: southern crabgrass, herbicidal effect rating (southern crabgrass [14]): 0 (Herbicidal rate of 5% or less (almost no effect)) | herbicidal effect on N: redroot pigweed (criteria 0-5) (redroot pigweed [15]): 5 (Herbicidal rate of 90% or more (almost completely withered)) | herbicidal effect on I: wild oat (criteria 0-5) (wild oat [16]): 3 (Herbicidal rate of 40% or more and less than 70%) | I: wild oat, herbicidal effect rating (wild oat [17]): 0 (Herbicidal rate of 5% or less (almost no effect)) | herbicidal effect on D: Chinese sprangletop (Chinese sprangletop): 3 (Herbicidal rate of 40% or more and less than 70%) | O: lambsquarters, herbicidal effect rating (lambsquarters [18]): 4 (Herbicidal rate of 70% or more and less than 90%) | herbicidal effect on H: barnyard grass (criteria 0-5) (barnyard grass [19]): 1 (Herbicidal rate of 5% or more and less than 20%) | J: blackgrass, herbicidal effect rating (blackgrass [20]): 0 (Herbicidal rate of 5% or less (almost no effect)) | R: persian speedwell, herbicidal effect rating (persian speedwell [21]): 0 (Herbicidal rate of 5% or less (almost no effect)) | L: windgrass, herbicidal effect rating (windgrass [22]): 0 (Herbicidal rate of 5% or less (almost no effect)) | herbicidal effect on O: lambsquarters (criteria 0-5) (lambsquarters [23]): 5 (Herbicidal rate of 90% or more (almost completely withered)) | herbicidal effect on R: persian speedwell (criteria 0-5) (persian speedwell [24]): 1 (Herbicidal rate of 5% or more and less than 20%) | P: chickweed, herbicidal effect rating (chickweed [25]): 0 (Herbicidal rate of 5% or less (almost no effect)) | Herbicidal effect on A: late watergrass (grade 0-5) (late watergrass): 3 (Herbicidal rate of 40% or more and less than 70%)

Reference: patent publication US20230085307A1, “PYRIDAZINONE COMPOUND AND HERBICIDE” (NISSAN CHEMICAL CORPORATION, priority 2019, published 2023)
